Data from ChEMBL document CHEMBL4622876, “Total Synthesis and Antimalarial Activity of Dominicin, a Cyclic Octapeptide from a Marine Sponge” (J Nat Prod, 2020).
Where a SMILES comes first, the peptide text is derived from it.

Key:
[1] = test system: Plasmodium falciparum; assay: Antiplasmodial activity against D-sorbitol synchronized ring stage Plasmodium falciparum 3D7 after 72 hrs; format: functional, organism-based; settings: 3D7, 72 h
[2] = test system: Plasmodium falciparum; assay: Antiplasmodial activity against D-sorbitol synchronized ring stage chloroquine/mefloquine/pyrimethamine-resistant Plasmodium falciparum Dd2 after 72 hrs; format: functional, organism-based; settings: Dd2, 72 h
[3] = test system: Erythrocyte; assay: Hemolytic activity in human RBC assessed as release of hemoglobin at 0.78 nM to 26 uM incubated for 72 hrs; format: ADME, cell-based; settings: 0.00078 µM
[4] = test system: Plasmodium falciparum; assay: Antiplasmodial activity against Plasmodium falciparum; format: functional, organism-based

IC50 [4] [µM]	SMILES	IC50 [1] [µM]	IC50 [2] [µM]	Activity [3]
–	CC[C@H](C)[C@@H]1NC(=O)[C@H]([C@@H](C)CC)NC(=O)[C@H]([C@@H](C)CC)NC(=O)[C@@H]2CCCN2C(=O)[C@H]([C@@H](C)O)NC(=O)[C@@H]2CCCN2C(=O)[C@@H]2CCCN2C(=O)[C@H](CC(C)C)NC1=O (cyclo(IIILPPTP))	3.6	1.8	Non-Toxic
2.2	C[C@@H](O)[C@@H]1NC(=O)CNC(=O)[C@H](Cc2ccccc2)NC(=O)[C@H](Cc2ccccc2)NC(=O)CNC(=O)[C@H](Cc2ccccc2)NC(=O)[C@H](Cc2ccccc2)NC1=O (cyclo(FFGFFGT))	–	–	–
